Reference: US20070122830A1, “Prohibitin-directed diagnostics and therapeutics for cancer and chemotherapeutic drug resistance” (Aurelium BioPharma Inc., priority 2005, published 2007)

Test system: MCF-7/ADR xenografts
Assay: Mammary adenocarcinoma xenografts in nude mice, prohibitin siRNA plus chemotherapy
Assay type: in vivo
Experimental: (§1) In further studies, the efficacy of a prohibitin-targeted therapeutic in treating mammary adenocarcinoma cells (MCF-7/AR) is assessed. Briefly, male […] nude mice 5 to 7 weeks old, weighing 18 g to 22 g, are used for the MCF-7/ADR xenografts. Mice receive a subcutaneous (s.c.) injection of the cells using 5×10^5 cells/inoculation under the shoulder. […] The animal's weight is measured every 4 days. Tumor growth starting on the first day of treatment is measured and the volume of the xenograft is monitored every 4 days. The mice are anaesthetized and sacrificed when the mean tumor weight is over 1 g in the control group. Tumor tissue is excised from the mice and its weight is measured. Tumor weights from mice treated with the prohibitin siRNA and chemotherapeutic drugs are compared to tumor weights from mice treated with control siRNA and chemotherapeutic drugs. Cell counts are compared. All experiments are performed in triplicate.
as §1, with “treating a” for “treating”, “(MCF-7)” for “(MCF-7/AR)”, “an s.c.” for “a subcutaneous (s.c.)”, “drugs.” for “drugs. Cell counts are compared. All experiments are performed in triplicate.”
In further studies, the efficacy of a prohibitin-targeted therapeutic in treating a mammary adenocarcinoma cells (MCF-7) is assessed. Briefly, male […] nude mice 5 to 7 weeks old, weighing 18 g to 22 g, are used for the MCF-7/ADR xenografts. Mice receive an s.c. injection of the cells using […] cells/inoculation under the shoulder.
Liposome formulations are produced as described previously (Shi et al. (2000) Proc. Natl. Acad. Sci. USA. 97(13): 7567-7572). Briefly, POPC ([…]), DDAB (0.2 μmol), DSPE-PEG 2000 (0.6 μmol), and DSPE-PEG 2000-maleimide (30 nmol) are dissolved in chloroform/methanol (2:1, vol:vol) […] a brief period of evaporation. The lipids are dispersed in 1 ml 0.05 M Tris-HCl buffer, pH 8.0, and are sonicated for 10 min. Prohibitin siRNA is added to the lipids. The liposome/siRNA dispersion is evaporated to a final concentration of 200 mM at a volume of 100 μl. The dispersion is frozen in ethanol/dry ice for 4 to 5 min. The dispersion is then thawed at 40° C. for 1 min. to 2 min., and this freeze-thaw cycle is repeated 10 times. The liposome dispersion is diluted to a lipid concentration of 40 mM, is followed by extrusion 10 times each through two stacks each of 400 nm, 200 nm, 100 nm, and 50 nm pore size polycarbonate membranes, by using a hand held extruder (Avestin, Ottawa). The mean vesicle diameters are determined by quasielastic light scattering using a Microtrac Ultrafine Particle Analyzer (Leeds-Northrup, St. Petersburg, Fla.).
The animal's weight is measured every 4 days. Tumor growth starting on the first day of treatment is measured and the volume of the xenograft is monitored every 4 days. The mice are anaesthetized and sacrificed when the mean tumor weight is over 1 g in the control group. Tumor tissue is excised from the mice and its weight is measured. Tumor weights from mice treated with the prohibitin siRNA and chemotherapeutic drugs are compared to tumor weights from mice treated with control siRNA and chemotherapeutic drugs.
In further studies, the efficacy of a prohibitin-targeted therapeutic in treating a mammary adenocarcinoma cells (MCF-7) is assessed. […]

[1] = Example 10, siRNA/liposome formulation
[2] = Example 11, siRNA/immunoliposome formulation

prohibitin siRNA: siRNA duplex to human prohibitin mRNA nt 425-443; sense 5′-GGAAGUGGUCUGUCUGUUAtt-3′, antisense 5′-UAACAGACAGACCACUUCCtt-3′ (sense GGAAGUGGUCUGUCUGUUATT; antisense UAACAGACAGACCACUUCCTT; chemistry not given here)
total cell numbers of tumors vs control siRNA (Example 8, MCF-7/AR cells): lower | tumor weight vs control siRNA (Example 8, MCF-7/AR cells): smaller tumors by weight | total cell number in tumors vs control siRNA (Example 9, MCF-7): lower | tumor weight vs control siRNA (Example 9, MCF-7): smaller tumors by weight | total cell number in tumors vs control siRNA [1]: lower | tumor weight vs control siRNA [1]: smaller tumors by weight | total cell number in tumors vs control siRNA [2]: lower | tumor weight vs control siRNA [2]: smaller tumors by weight
